Measured values reported in patent US11118208B2, “Methods for modulating protein galactosylation profiles of recombinant proteins using peracetyl galactose” (ARES TRADING S.A., priority 2016, dated 2021).
“And” between values parts separate entries of the source, which are not always exact repeats. Equal entries are not always repeated.

Legend:
Type in all cases: cell-based, Chinese hamster
[1] = system: mAb2 cells (CHO-Ki cells expressing IgG1 mAb2); experiment: Fed-batch culture of mAb2 cells in TubeSpin: viable cell density, viability, titer
Experimental: (§1) Additional assays were performed with another antibody also produced in another CHO cell line: CHO-Ki cells expressing IgG1 mAb2, herein “Cells mAb2” or “mAb2 cells”. “mAb2” is a humanized monoclonal antibody directed against a receptor found on the cell membrane. Its isoelectric point (pI) is about 9.30.
(§2) Cells expressing mAb1 were inoculated at 0.3×10^6 cells per millilitre (mL), whereas Cells expressing mAb2 were inoculated at 0.2×10^6 cells per millilitre (mL).
(§3) For examples 1-3: A serum-free chemically defined culture medium was used. It was used as it is, or it was supplemented with α- or β-2-F-peracetyl galactose (herein α- or β-2F-pGal; Biosynth & AX Molecules) at different concentrations (0-200 μM before seeding). The concentrations indicated on FIGS. 1, 2, 3 and 4 are the concentrations in α- or β-2F-pGal in the culture medium at day 0, just before the inoculation. The culture medium was fed, on a regular basis, with a chemically defined feed medium, as well as with glucose in order to keep said glucose level in the range of >0 to about 8 g/L (feeds are done at days 3, 5, 7, 10 and 12).
(§4) The cultures were performed in deepwell plates (DWP) with a working volume of 450 μL. They were incubated at 36.5° C., 5% de CO2, 90% humidity and shaken at 320 rpm. Each of the fed-batch culture lasted 14 days. It is well known that experiments in DWP are artificial, although they allow a first screening of culture conditions. In order to confirm that the results obtained in DWP were reproducible at higher scale, similar experiments were also run in TubeSpin® (also called herein shake tubes or ST), with a working volume of 30 mL cell culture (same culture condition than for deepwell plates).
(§5) For TubeSpin® experiments, viable cell density and viability were measured with the ViCell®. Antibody titers were measured using Biacore®.

[2] = system: mAb1 cells (CHO-S cells expressing IgG1 mAb1); experiment: Fed-batch culture of mAb1 cells in deepwell plates (DWP): viable cell density, viability, titer
Experimental: (§6) First assays were performed with an antibody produced in a CHO cell line: CHO-S cells expressing IgG1 mAb1, herein “Cells mAb1” or “mAb1 cells”. “mAb1” is a fully human monoclonal antibody directed against a soluble protein. Its isoelectric point (pI) is about 8.20-8.30.
as §2, §3, §4
For DWP experiments, viable cell density and viability were measured with the Guava easyCyte® flow cytometer. Antibody titers were measured with the fortéBIO Octet®.
(§7) The cells were cultivated and the results analysed as disclosed in the material and method section. It is noted that the controls (or control conditions) according to the present invention correspond to cells grown without peracetyl galactose.

[3] = system: galactosylation of mAb2 antibody (mAb2 cells); experiment: Glycosylation profile of mAb2 produced in TubeSpin (2AB-UPLC)
Experimental: as §1, §3, §4
(§8) Glycosylation profiles were established by capillary gel electrophoresis with laser-induced fluorescence (CGE-LIF; for DWP and for Shake tubes experiments) or by Ultra Performance Liquid Chromatography-2-amino-benzamide labelling technique (2AB-UPLC; for Shake tubes experiments). Groups of glycans were defined as thereafter in Table 3.

[4] = system: mAb1 cells (CHO-S cells expressing IgG1 mAb1); experiment: Fed-batch culture of mAb1 cells in TubeSpin (shake tubes): viable cell density, viability, titer
Experimental: as §6, §2, §3, §4, §5

[5] = system: galactosylation of mAb1 antibody (mAb1 cells); experiment: Glycosylation profile of mAb1 produced in TubeSpin (CGE-LIF); conditions: for monogalactosylated form changed by (Example 2.2) / total level of galactosylation decreased by (Example 2.2): shake tubes, CGE-LIF
Experimental: as §6, §3, §4, §8

[6] = system: galactosylation of mAb1 antibody (mAb1 cells); experiment: Glycosylation profile of mAb1 produced in DWP (CGE-LIF)
Experimental: as §6, §3, §4, §8, §7

SMILES: CC(=O)OC[C@H]1OC(OC(C)=O)[C@H](F)[C@@H](OC(C)=O)[C@H]1OC(C)=O (stereo in doubt) [α-2F-pGal, α/β-D-galactopyranose, 2-deoxy-2-fluoro-,1,3,4,6-tetraacetate]
- titer at day 7 ([1]; 30 μM): ~720 mg/L
- titer at day 14 ([1]; 30 μM): 3400 to 3420 mg/L
- titer at day 7 ([1]; 60 μM): ~720 mg/L
- titer at day 14 ([1]; 60 μM): 3400 to 3420 mg/L
- titer at day 7 ([1]; 90 μM): about 670 mg/L
- titer at day 14 ([1]; 90 μM): ~3200 mg/L
- peak viable cell density ([1]; 90 μM, shake tubes): 10.0 ×106 viable cells/mL
- productivity ([1]; 30 and 60 μM): globally unchanged
- overall viable cell densities compared to the control ([1]; 30 and 60 μM, shake tubes): comparable to the control
- cell viability at day 7 ([1]; entire supplement concentration range): about 97%
- viabilities compared to the control condition ([1]; entire supplement concentration range (30-90 μM)): comparable to the control condition
- decrease of titers comparing to control ([2]; concentration higher than 60 μM): about 1.2 factor
- impact on protein titre ([2]; concentrations between 30 and 60): no impact on protein titre
- impact on cell growth ([2]; concentrations of about 60 μM and higher): negative impact on cell growth
- impact on cell growth until the end of culture ([2]; concentrations up to 30 μM in medium): no impact on cell growth
- protein titer compared to the control ([2]; media concentration up to 60 μM, day 10 and day 14): stays above the protein titer of the control
- impact on cell density, cell viability and protein titer ([2]; media concentrations below 30 μM): do not impact
- effect on the overall fucosylated species [3]: +0.5%
- FA2G1 decrease (absolute change) ([3]; 30 μM): −0.85%
- change of the FA2G2 abundance ([3]; 30 μM): −0.09%
- reduction of galactosylation (absolute change) ([3]; 30 μM): −0.95%
- FA2G1 decrease (absolute change) ([3]; 60 μM): −1.85%
- change of the FA2G2 abundance ([3]; 60 μM): −0.19%
- reduction of galactosylation (absolute change) ([3]; 60 μM): −2.05%
- FA2G1 decrease (absolute change) ([3]; 90 μM): −1.2%
- change of the FA2G2 abundance ([3]; 90 μM): −0.19%
- reduction of galactosylation (absolute change) ([3]; 90 μM): −1.4%
- product titer at the end of the culture (day 14) ([4]; 30 μM, shake tubes): 2050 mg/L
- product titer at the end of the culture (day 14) ([4]; 60 μM, shake tubes, listed as α-2F-p-galactose): 2130 mg/L
- product titer at the end of the culture (day 14) ([4]; 90 μM, shake tubes): 2225 mg/L
- growth inhibitory effect in the first part of the culture ([4]; 30, 60 and 90 μM, shake tubes): no growth inhibitory effect
- cell densities compared to control from day 10 until the end of the culture ([4]; 30 and 90 μM, shake tubes): slightly lower
- impact on cell growth or protein titer until the end of culture ([4]; any one of 30, 60 and 90 μM, TubeSpin): no negative impact on cell growth or protein titer
- effect on cell culture performance ([4]; between 0 and 90 μM α-2F-p-galactose, 60 μM β-2F-p-galactose, shake tubes): No detrimental effect
- protein titer compared to the control at culture days 5, 7, 10, 12 and 14 ([4]; α 30-90 μM, β 60 μM, shake tubes, listed as α-2F-p-galactose): comparable at all time points
- G1F absolute change compared to the control ([5]; 30 μM, TubeSpin): 1.9%
- G2F absolute change compared to the control ([5]; 30 μM, TubeSpin): 0.11%
- relative decrease of galactosylated N-oligosaccharides compared to control ([5]; 30 μM, TubeSpin): about 16%
- monogalactosylated form changed by (Example 2.2) ([5]; 30 μM): −1.9%
- total level of galactosylation decreased by (Example 2.2) ([5]; 30 μM): 2.0%
- G1F absolute change compared to the control ([5]; 60 μM, TubeSpin): 4.3%
- G2F absolute change compared to the control ([5]; 60 μM, TubeSpin): 0.27%
- absolute change of galactosylated N-oligosaccharides compared to the control ([5]; 60 μM, TubeSpin): 4.61% and ~4.5%
- relative decrease of galactosylated N-oligosaccharides compared to control ([5]; 60 μM, TubeSpin): ~37%
- total level of galactosylation decreased by (Example 2.2) ([5]; 60 μM): 4.6%
- monogalactosylated form changed by (Example 2.2) ([5]; 60 μM, listed as α-2F-peracetyl-galactose): −4.3%
- G1F absolute change compared to the control ([5]; 90 μM, TubeSpin): 4.3%
- G2F absolute change compared to the control ([5]; 90 μM, TubeSpin): 0.33%
- relative decrease of galactosylated N-oligosaccharides compared to control ([5]; 90 μM, TubeSpin): ~36%
- monogalactosylated form changed by (Example 2.2) ([5]; 90 μM): −4.3%
- total level of galactosylation decreased by (Example 2.2) ([5]; 90 μM): −4.5%
- G1F absolute change compared to the control ([6]; 30 μM): 1.1%
- G2F absolute change compared to the control ([6]; 30 μM): 0.2%
- absolute change in galactosylated N-oligosaccharide compared to the control ([6]; 30 μM): 1.3%
- relative decrease of galactosylated N-oligosaccharides compared to control ([6]; 30 μM): 17%
- galactosylated N-oligosaccharides of the protein ([6]; 30 μM in medium): 8.3%
- G1F absolute change compared to the control ([6]; 60 μM): 2.5%
- G2F absolute change compared to the control ([6]; 60 μM): 0.3%
- absolute change in galactosylated N-oligosaccharide compared to the control ([6]; 60 μM): 2.8%
- relative decrease of galactosylated N-oligosaccharides compared to control ([6]; 60 μM): 32%
- galactosylated N-oligosaccharides of the protein ([6]; 60 μM in medium): 6.8%
- G1F absolute change compared to the control ([6]; 120 μM): 3.1%
- G2F absolute change compared to the control ([6]; 120 μM): 0.35%
- absolute change in galactosylated N-oligosaccharide compared to the control ([6]; 120 μM): 3.5%
- relative decrease of galactosylated N-oligosaccharides compared to control ([6]; 120 μM): 40%
- galactosylated N-oligosaccharides of the protein ([6]; 120 μM in medium): 6.0%
- G1F absolute change compared to the control ([6]; 200 μM): 4.4%
- G2F absolute change compared to the control ([6]; 200 μM): 0.4%
- absolute change in galactosylated N-oligosaccharide compared to the control ([6]; 200 μM): 4.8%
- relative decrease of galactosylated N-oligosaccharides compared to control ([6]; 200 μM): 52%
- galactosylated N-oligosaccharides of the protein ([6]; 200 μM in medium): 4.8%
- inhibition effect on galactosylation ([6]; below 30): neither α- or β-2F-pGal does have a significant inhibition effect on galactosylation
- inhibition effect on galactosylation ([6]; concentrations higher than 30 μM): a significant inhibition effect is observed
